From patent US9371292B2, “Quinazoline derivative, preparation method therefor, intermediate, composition and application thereof” (SHANGHAI PHARMACEUTICALS HOLDINGS CO., LTD., priority 2011, dated 2016)
pIC50: −log10 of the molar value. Counter-ions that a name gives are not always drawn.

Legend:
NCI-H1975 = type: in vivo, BALB/c nude mice; details: 60 mg/kg
Text: Preparation method: dissolve the test compound in 20% PEG400+3% Tween80 to obtain a required concentration; dissolve the control group in 0.5% CMC+0.4% Tween80 to obtain a required concentration.
BALB/c nude mice (Shanghai xipuer-bikai experimental animals company), weight 16-18 g, female. BD matrigel, NCI-H1975 cell (ATCC)
Cells in logarithmic phase were collected. The ratio of medium to matrigel was 1:1. The concentration of cell was adjust to 3×10^7/ml and put into a ice box, then inoculated in each nude mice subcutaneously with 0.2 ml. Then carry out intragastric administration once a day for 5 days and stop administration for 2 days. Administrate for 9 days in total. Dosages are as follows:
The size and weight were measured. The length and width of tumors were measured individually with microcalipers. Tumor volume (V) and relative tumor volume (RTV) was calculated as formula. Day 12, all the nude mouse were killed and the tumors were taken out and pictured. The individual as follows: RTV=Vt/V0, where Vt is and V0 is. and the calculation formula is T/C (%)=mean RTV of the treated group/mean RTV of the control group×100%.
(1) Tumor volume (Tumor Volume, TV), calculation formula: […], wherein a and b presents length and width respectively.
(2) Relative Tumor Volume (RTV), calculation formula: RTV=Vt/V0.
Wherein TV0 is the volume on the day of initial treatment, TVt is the volume on each day of measurement.
(3) The relative tumor increment rate T/C (%), calculation formula: […]
TRTV: treated group RTV; CRTV: negative control group RTV.
Therapeutic effect of compound was expressed in terms of T/C %.

A431 cell = assay: Proliferation inhibition, A431 cells (CellTiter-Glo); type: cell-based; details: Homo sapiens, A-431, 48 hours
Method: (§1) This example is to determine the proliferation inhibitory activity against wide type of high expression cell lines A431 of EGFR and mutant cell lines NCI-H1975^L858RT790M, the proliferation inhibitory activity in cell-based level of compound is expressed by IC50. The test method is as follows: both cell lines are purchased from American type culture collection (ATCC). The cells are seeded in a white and opaque 384-well culture plate with a proper concentration (A431: 20000 cells/ml medium; H1975: 15000 cells/ml medium), cultured at 37° C. with 5% CO2 for 24 hrs, a series of medicine with gradient concentration is added, generally 10 concentrations, cultured for another 48 hours under the previous conditions. The assays of the proliferation inhibitory activity against the A431 and H1975 cell of the test compounds are performed by the CellTiter-Glo Luminescent Cell Viability Assay and calculate the proliferation inhibitory activity of compound with different concentrations. CellTiter-Glo Luminescent Cell Viability Assay is purchased from Promega. Fit the data of proliferation inhibitory activity against A431 and H1975 of compounds with different concentrations with 4-parameter equation.

EGFR tyrosine kinase = target: T1, EGFR tyrosine kinase (Homo sapiens, UniProt P00533); assay: HTRF assay, inhibition of EGFR tyrosine kinase; type: biochemical; details: HTRF method
T1 construct: purchased Sigma Aldrich
Method: The activity of inhibitory against the kinase of the test compound is expressed by IC50. The assays are performed by Homogeneous time-resolved fluorescence (HTRF) method which is as follows: a series of synthesized analogues with gradient concentration are incubated for 5 minutes in enzymatic solution with specific concentration (for EGFR) at room temperature. Then proper amount of substrate and ATP are added into the reaction mixture to start the enzyme reaction. The assays of the specific concentration of compound is measured by Flexstation III of Molecular device company after the stop buffer and detecting liquid are added to the enzyme reaction system and hatch at room temperature for 1 hour. And the activity of inhibitory against the kinase of the test compound with different concentration will be calculated, then according to the 4-parameter equation, fit the inhibitory activity of the test compound with different concentration to get the IC50. EGFR is purchased from Sigma Aldrich. The HTRF KinEASE-TK is purchased from Cisbio Bioassays. ATP is purchased from Sigma Aldrich.

[1] = test system: NCI-H1975 L858R T790M cell; assay: Proliferation inhibition, H1975 cells (CellTiter-Glo); type: cell-based; details: Homo sapiens, 48 hours
Method: as §1

T1 sequence (P00533 25-1210): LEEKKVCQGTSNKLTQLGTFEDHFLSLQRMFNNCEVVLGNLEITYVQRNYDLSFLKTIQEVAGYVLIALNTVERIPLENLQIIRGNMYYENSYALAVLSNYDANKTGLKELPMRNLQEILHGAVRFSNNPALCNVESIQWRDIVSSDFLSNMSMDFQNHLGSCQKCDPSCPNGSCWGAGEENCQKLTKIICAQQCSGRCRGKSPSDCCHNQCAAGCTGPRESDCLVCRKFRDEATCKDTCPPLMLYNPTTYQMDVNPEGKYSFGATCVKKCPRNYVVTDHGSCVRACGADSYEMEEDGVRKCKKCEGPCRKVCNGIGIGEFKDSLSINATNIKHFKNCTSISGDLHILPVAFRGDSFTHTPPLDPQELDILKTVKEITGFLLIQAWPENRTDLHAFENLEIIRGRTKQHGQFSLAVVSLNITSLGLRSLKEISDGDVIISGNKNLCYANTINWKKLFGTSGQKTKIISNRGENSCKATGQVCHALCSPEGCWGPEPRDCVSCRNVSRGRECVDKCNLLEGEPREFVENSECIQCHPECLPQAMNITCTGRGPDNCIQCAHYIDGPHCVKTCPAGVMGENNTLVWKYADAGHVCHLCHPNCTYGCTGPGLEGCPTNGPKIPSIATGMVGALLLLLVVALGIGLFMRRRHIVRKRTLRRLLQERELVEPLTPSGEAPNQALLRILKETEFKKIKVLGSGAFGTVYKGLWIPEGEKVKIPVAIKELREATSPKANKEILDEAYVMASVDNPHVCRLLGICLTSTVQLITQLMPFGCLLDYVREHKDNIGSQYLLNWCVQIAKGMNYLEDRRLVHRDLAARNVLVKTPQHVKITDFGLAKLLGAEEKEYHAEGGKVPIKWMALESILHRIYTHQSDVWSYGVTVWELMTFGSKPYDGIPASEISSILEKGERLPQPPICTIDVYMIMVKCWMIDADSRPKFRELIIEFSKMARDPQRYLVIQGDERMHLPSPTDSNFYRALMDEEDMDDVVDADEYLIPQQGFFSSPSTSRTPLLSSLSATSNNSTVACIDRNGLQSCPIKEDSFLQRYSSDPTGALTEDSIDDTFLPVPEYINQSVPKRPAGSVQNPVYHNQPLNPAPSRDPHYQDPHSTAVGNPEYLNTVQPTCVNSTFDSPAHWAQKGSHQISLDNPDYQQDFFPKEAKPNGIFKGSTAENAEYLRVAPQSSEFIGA

Row | Structure (SMILES) | pIC50 (A431 cell) | IC50 (EGFR tyrosine kinase) | pIC50 [1] | Inhibition of growth of NCI-H1975 in nude mice (in words) (NCI-H1975; NCI-H1975 nude mice, 60 mpk) | Tolerability in mice (NCI-H1975; mouse, in vivo, po)
1 | COc1cc2ncnc(Nc3ccc(F)c(Cl)c3)c2cc1NC(=O)/C(F)=C/CN(C)C [2-1(hydrochloride), (Z)—N-(4-((3-chloro-4-fluorophenyl)amino)-7-methoxyquinazolin-6-yl)-4-(dimethylamino)-2-fluorobut-2-enamide] | – | – | – | significantly inhibit the growth | well tolerated
2 | C=C(F)C(=O)Nc1cc2c(Nc3ccc(F)c(F)c3F)ncnc2cc1OCCCN1CCOCC1 [Compound 32, N-[7-(3-morpholin-4-yl-propoxy)-4-(2,3,4-trifluoro-phenylamino)-quinazolin-6-yl]-2-fluoro-acrylamide] | 5.38 | 0.72 nM | 5.25 | – | –
3 | C=C(Cl)C(=O)Nc1cc2c(Nc3ccc(F)c(Cl)c3F)ncnc2cc1OCCCN1CCOCC1 [Compound 34, N-[4-(3-chloro-2,4-difluoro-phenylamino)-7-(3-morpholin-4-yl-propoxy)-quinazolin-6-yl]-2-chloro-acrylamide] | < 4.00 | 0.65 nM | 5.28 | – | –
4 | C=C(Cl)C(=O)Nc1cc2c(Nc3ccc(F)c(Cl)c3)ncnc2cc1OCCCN1CCOCC1 [Compound 35, N-[4-(3-chloro-4-fluoro-phenylamino)-7-(3-morpholin-4-yl-propoxy)-quinazolin-6-yl]-2-chloro-acrylamide] | < 4.00 | 0.97 nM | 5.07 | – | –
5 | C=C(F)C(=O)Nc1cc2c(Nc3ccc(Cl)c(OC)c3)ncnc2cc1OCCCN1CCOCC1 [Compound 37, N-[4-(4-chloro-3-methoxy-phenylamino)-7-(3-morpholin-4-yl-propoxy)-quinazolin-6-yl]-2-fluoro-acrylamide] | < 4.00 | 4.7 nM | 5.72 | – | –
6 | C=C(F)C(=O)Nc1cc2c(Nc3ccc(Br)c(Cl)c3F)ncnc2cc1OCCCN1CCOCC1 [Compound 38, N-[4-(4-bromo-3-chloro-2-fluoro-phenylamino)-7-(3-morpholin-4-yl-propoxy)-quinazolin-6-yl]-2-fluoro-acrylamide] | 6.74 | 0.35 nM | 5.96 | – | –
7 | C=C(F)C(=O)Nc1cc2c(Nc3ccc(F)c(Cl)c3)ncnc2cc1OCCCN1CCCCC1 [Compound 40, N-[4-(3-chloro-4-fluoro-phenylamino)-7-(3-piperidin-l-yl-propoxy)-quinazolin-6-yl]-2-fluoro-acrylamide] | 5.89 | 1 nM | 5.47 | – | –
8 | C=C(F)C(=O)Nc1cc2c(Nc3ccc(F)c(Cl)c3)ncnc2cc1OCCCN(C)C [Compound 42, N-[4-(3-chloro-4-fluoro-phenylamino)-7-(3-dimethylamino-propoxy)-quinazolin-6-yl]-2-fluoro-acrylamide] | 6.28 | 0.55 nM | 5.62 | – | –
9 | C=C(F)C(=O)Nc1cc2c(Nc3ccc(F)c(Cl)c3)ncnc2cc1OCCCN1CCCC1 [Compound 43, N-[4-(3-chloro-4-fluoro-phenylamino)-7-(3-pyrrolidin-l-yl-propoxy)-quinazolin-6-yl]-2-fluoro-acrylamide] | 5.77 | 1.3 nM | 5.47 | – | –
10 | C=C(F)C(=O)Nc1cc2c(Nc3ccc(F)c(Cl)c3)ncnc2cc1OCCCN1CCN(C)CC1 [Compound 44, N-{4-(3-chloro-4-fluoro-phenylamino)-7-[3-(4-methyl-piperazin-1-yl)-propoxy]-quinazolin-6-yl}-2-fluoro-acrylamide] | 6.28 | 0.29 nM | 5.43 | – | –
11 | C=C(F)C(=O)Nc1cc2c(Nc3ccc(F)c(Cl)c3F)ncnc2cc1OCC1CCC1 [Compound 47, N-[4-(3-chloro-2,4-difluoro-phenylamino)-7-cyclobutylmethoxy-quinazolin-6-yl]-2-fluoro-acrylamide] | 4.85 | 1.88 nM | 5.82 | – | –
12 | C=C(F)C(=O)Nc1cc2c(Nc3ccc(F)c(Cl)c3F)ncnc2cc1OCC1CC1 [Compound 48, N-[4-(3-chloro-2,4-difluoro-phenylamino)-7-cyclopropylmethoxy-quinazolin-6-yl]-2-fluoro-acrylamide] | 4.89 | 0.65 nM | 5.74 | – | –
13 | C=C(F)C(=O)Nc1cc2c(Nc3ccc(F)c(Cl)c3F)ncnc2cc1O[C@@H]1CCN(C)C1 [Compound 50, (R)-N-[4-(3-chloro-2,4-difluoro-phenylamino)-7-(1-methyl-pyrrolidin-3-yloxy)-quinazolin-6-yl]-2-fluoro-acrylamide] | 4.82 | 5.5 nM | 5.62 | – | –
14 | C=C(F)C(=O)Nc1cc2c(Nc3ccc(F)c(Cl)c3F)ncnc2cc1O[C@H]1CCN(C)C1 [Compound 51, (S)-N-[4-(3-chloro-2,4-difluoro-phenylamino)-7-(1-methyl-pyrrolidin-3-yloxy)-quinazolin-6-yl]-2-fluoro-acrylamide] | 4.70 | 4.9 nM | 5.14 | – | –
15 | C=C(F)C(=O)Nc1cc2c(Nc3cccc(Br)c3)ncnc2cc1OC [Compound 52, N-[4-(3-bromo-phenylamino)-7-methoxy-quinazolin-6-yl]-2-fluoro-acrylamide] | 5.80 | 0.22 nM | 6.33 | – | –
16 | C=C(F)C(=O)Nc1cc2c(Nc3cccc(Br)c3)ncnc2cc1OCC [Compound 53, N-[4-(3-bromo-phenylamino)-7-ethoxy-quinazolin-6-yl]-2-fluoro-acrylamide] | 4.44 | 0.36 nM | 6.00 | – | –

Second part, led by results:

Row | pIC50 (A431 cell) | IC50 (EGFR tyrosine kinase) | pIC50 [1] | Structure (SMILES) | Inhibition of growth of NCI-H1975 in nude mice (in words) (NCI-H1975; NCI-H1975 nude mice, 60 mpk) | Tolerability in mice (NCI-H1975; mouse, in vivo, po)
17 | 5.42 | 1.1 nM | 4.89 | C=C(F)C(=O)Nc1cc2c(Nc3cccc(C(F)(F)F)c3)ncnc2cc1OC [Compound 54, N-[7-methoxy-4-(3-trifluoromethyl-phenylamino)-quinazolin-6-yl]-2-fluoro-acrylamide] | – | –
18 | 4.66 | 0.97 nM | 4.89 | C=C(F)C(=O)Nc1cc2c(Nc3cccc(C(F)(F)F)c3)ncnc2cc1OCC [Compound 55, N-[7-ethoxy-4-(3-trifluoromethyl-phenylamino)-quinazolin-6-yl]-2-fluoro-acrylamide] | – | –
19 | 5.55 | 0.22 nM | 6.29 | C=C(F)C(=O)Nc1cc2c(Nc3ccc(F)c(Cl)c3)ncnc2cc1OC [Compound 56, N-[4-(3-chloro-4-fluoro-phenylamino)-7-methoxy-quinazolin-6-yl]-2-fluoro-acrylamide] | – | –
20 | 5.12 | 0.13 nM | 5.89 | C=C(Cl)C(=O)Nc1cc2c(Nc3ccc(F)c(Cl)c3)ncnc2cc1OC [Compound 57, N-[4-(3-chloro-4-fluoro-phenylamino)-7-methoxy-quinazolin-6-yl]-2-chloro-acrylamide] | – | –
21 | 4.57 | 1 nM | 5.08 | C=C(Cl)C(=O)Nc1cc2c(Nc3cccc(C(F)(F)F)c3)ncnc2cc1OCC [Compound 58, N-[7-ethoxy-4-(3-trifluoromethyl-phenylamino)-quinazolin-6-yl]-2-chloro-acrylamide] | – | –
22 | 5.00 | 0.63 nM | 4.96 | C=C(Cl)C(=O)Nc1cc2c(Nc3cccc(Br)c3)ncnc2cc1OCC [Compound 59, N-[4-(3-bromo-phenylamino)-7-ethoxy-quinazolin-6-yl]-2-chloro-acrylamide] | – | –
23 | 6.10 | 4.5 nM | 6.00 | C=C(F)C(=O)Nc1cc2c(Nc3ccc(OCC4CC4)c(Cl)c3)ncnc2cc1OCCCN1CCOCC1 [Compound 61] | – | –
